Source: patent US4683198A, “Novel maltose dehydrogenase, process for its production, and analytical method using the same” (Toyo Jozo Kabushiki Kaisha, priority 1983, dated 1987)

Target: T1, amylase (Homo sapiens, UniProt P0DUB6)
T1 construct: 500-fold-diluted saliva (a specimen containing amylase, 20 μl); from tissue; host or cells: saliva, 500-fold diluted
T1 sequence (P0DUB6 16-511): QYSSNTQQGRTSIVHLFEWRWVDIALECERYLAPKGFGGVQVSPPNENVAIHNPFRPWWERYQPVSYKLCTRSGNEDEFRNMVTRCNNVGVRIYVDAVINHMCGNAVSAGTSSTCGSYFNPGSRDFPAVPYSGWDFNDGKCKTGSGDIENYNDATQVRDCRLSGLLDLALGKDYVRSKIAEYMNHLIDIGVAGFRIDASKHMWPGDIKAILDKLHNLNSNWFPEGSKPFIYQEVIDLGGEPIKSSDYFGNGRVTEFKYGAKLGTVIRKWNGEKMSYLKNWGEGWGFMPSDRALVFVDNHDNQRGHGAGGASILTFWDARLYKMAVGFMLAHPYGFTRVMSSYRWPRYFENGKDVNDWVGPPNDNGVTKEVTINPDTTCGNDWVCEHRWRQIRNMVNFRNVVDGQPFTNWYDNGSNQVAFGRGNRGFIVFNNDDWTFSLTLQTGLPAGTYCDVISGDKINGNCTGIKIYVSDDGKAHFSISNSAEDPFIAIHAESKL
Assay: Salivary amylase assay with modified oligosaccharide substrates (Example 3)
Assay type: biochemical
Conditions: 5 mM substrate; 500-fold-diluted saliva; 37° C.
Procedure: Aliquots of the reaction mixture (each 1 ml), in which 5 mM p-nitrophenylpentaoside or p-nitrophenylheptaoside was added to the same reaction mixture described in Example 2, in small test tubes, were pre-incubated at 37° C. Aliquots of 500-fold-diluted saliva (a specimen containing amylase, 20 μl) were added thereto and the mixtures were incubated for 5, 10 and 15 mins., respectively.

O=[N+]([O-])c1ccc(OC2O[C@H](CO)[C@@H](O[C@H]3O[C@H](CO)[C@@H](O[C@H]4O[C@H](CO)[C@@H](O[C@H]5O[C@H](CO)[C@@H](O[C@H]6O[C@H](CO)[C@@H](O[C@H]7O[C@H](CO)[C@@H](O[C@H]8O[C@H](CO)[C@@H](O)[C@H](O)[C@H]8O)[C@H](O)[C@H]7O)[C@H](O)[C@H]6O)[C@H](O)[C@H]5O)[C@H](O)[C@H]4O)[C@H](O)[C@H]3O)[C@H](O)[C@H]2O)cc1 (stereo partly shown) [p-nitrophenylheptaoside]
activity as compared with p-nitrophenylpentaoside: Three times stronger activity
